The target in one assay is ROCK 1 (Homo sapiens, UniProt Q13464). The assay can be described thus: In vitro Rho kinase inhibitory activity assay (ADP-Glo), Rho kinase 1. In kind it is biochemical. Conditions: Ki by Cheng-Prusoff from IC50; 10 μM ATP, 25° C., expressed as range of activity. As to the method: (§1) The effectiveness of compounds of the present invention to inhibit Rho kinase activity can be determined in a 10 μl assay containing 40 mM Tris pH7.5, 20 mM MgCl2 0.1 mg/mi BSA, 50 μM DTT and 2.5 μM peptide substrate (Myelin Basic Protein) using an ADP-Glo kit (Promega). Compounds were dissolved in DMSO such that the final concentration of DMSO was 1% in the assay. All reactions/incubations are performed at 25° C. Compound (2 ul) and either Rho kinase 1 or 2 (4 μl) were mixed and incubated for 30 mins. Reactions were initiated by addition of ATP (4 μl) such that the final concentration of ATP in the assay was 10 μM. After a 1 hour incubation 10 μl of ADP-Glo Reagent was added and after a further 45 minute incubation 20 ul of Kinase Detection Buffer was added and the mixture incubated for a further 30 minutes. The luminescent signal was measured on a luminometer. […] Compounds were tested in dose-response format and the inhibition of kinase activity was calculated at each concentration of compound. To determine the IC50 (concentration of compound required to inhibit 50% of the enzyme activity) data were fit to a plot of % inhibition vs Log10 compound concentration using a sigmoidal fit with a variable slope and fixing the maximum to 100% and the minimum to 0%. To determine the Ki values the Cheng-Prusoff equation was utilized (Ki=IC50/(1+[S]/Km).
For orientation: ADP-Glo turns the ADP formed in a reaction into a luminescent signal.

In a further assay the target is ROCK 2 (Homo sapiens, UniProt O75116). The assay is described as follows: In vitro Rho kinase inhibitory activity assay (ADP-Glo), Rho kinase 2. Format: biochemical. Conditions: Ki by Cheng-Prusoff from IC50; 10 μM ATP, 25° C., expressed as range of activity. As to the method: as §1
ROCK 2, sequence (O75116 whole entry): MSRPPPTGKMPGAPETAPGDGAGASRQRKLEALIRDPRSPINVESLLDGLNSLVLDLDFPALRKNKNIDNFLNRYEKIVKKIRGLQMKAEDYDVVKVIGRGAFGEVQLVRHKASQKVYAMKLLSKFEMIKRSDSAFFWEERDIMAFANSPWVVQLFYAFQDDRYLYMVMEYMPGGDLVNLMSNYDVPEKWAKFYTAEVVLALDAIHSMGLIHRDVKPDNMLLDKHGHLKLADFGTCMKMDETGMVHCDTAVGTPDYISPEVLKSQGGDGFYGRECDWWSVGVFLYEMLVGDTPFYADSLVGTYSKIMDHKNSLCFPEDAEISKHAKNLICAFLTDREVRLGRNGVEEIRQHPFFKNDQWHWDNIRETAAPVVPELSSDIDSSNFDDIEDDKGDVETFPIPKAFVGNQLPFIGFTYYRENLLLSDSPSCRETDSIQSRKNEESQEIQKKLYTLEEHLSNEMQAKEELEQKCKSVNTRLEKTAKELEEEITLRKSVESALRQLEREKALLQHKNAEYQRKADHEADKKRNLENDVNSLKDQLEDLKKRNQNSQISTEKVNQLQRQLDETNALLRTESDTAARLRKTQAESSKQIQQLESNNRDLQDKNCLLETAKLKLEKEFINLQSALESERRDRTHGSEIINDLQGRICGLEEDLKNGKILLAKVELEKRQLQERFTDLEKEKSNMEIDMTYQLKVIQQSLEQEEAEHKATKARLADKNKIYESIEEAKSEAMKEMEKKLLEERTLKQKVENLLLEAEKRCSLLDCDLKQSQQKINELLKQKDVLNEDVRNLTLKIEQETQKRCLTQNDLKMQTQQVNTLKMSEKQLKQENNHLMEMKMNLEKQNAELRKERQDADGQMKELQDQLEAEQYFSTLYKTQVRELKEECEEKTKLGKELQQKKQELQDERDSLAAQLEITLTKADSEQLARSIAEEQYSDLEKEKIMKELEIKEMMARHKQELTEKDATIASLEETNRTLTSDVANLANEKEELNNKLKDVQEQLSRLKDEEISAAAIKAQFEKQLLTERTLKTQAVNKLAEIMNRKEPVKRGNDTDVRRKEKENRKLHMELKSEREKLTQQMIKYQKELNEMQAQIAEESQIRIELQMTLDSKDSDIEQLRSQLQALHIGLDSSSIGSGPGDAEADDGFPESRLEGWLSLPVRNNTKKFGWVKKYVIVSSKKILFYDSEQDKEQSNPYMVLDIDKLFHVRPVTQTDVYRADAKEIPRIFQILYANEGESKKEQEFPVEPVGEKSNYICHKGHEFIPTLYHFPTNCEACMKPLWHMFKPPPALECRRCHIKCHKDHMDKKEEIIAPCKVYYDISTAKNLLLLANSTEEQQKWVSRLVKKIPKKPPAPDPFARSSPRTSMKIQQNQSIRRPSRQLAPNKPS

ROCK 1, sequence (Q13464 whole entry): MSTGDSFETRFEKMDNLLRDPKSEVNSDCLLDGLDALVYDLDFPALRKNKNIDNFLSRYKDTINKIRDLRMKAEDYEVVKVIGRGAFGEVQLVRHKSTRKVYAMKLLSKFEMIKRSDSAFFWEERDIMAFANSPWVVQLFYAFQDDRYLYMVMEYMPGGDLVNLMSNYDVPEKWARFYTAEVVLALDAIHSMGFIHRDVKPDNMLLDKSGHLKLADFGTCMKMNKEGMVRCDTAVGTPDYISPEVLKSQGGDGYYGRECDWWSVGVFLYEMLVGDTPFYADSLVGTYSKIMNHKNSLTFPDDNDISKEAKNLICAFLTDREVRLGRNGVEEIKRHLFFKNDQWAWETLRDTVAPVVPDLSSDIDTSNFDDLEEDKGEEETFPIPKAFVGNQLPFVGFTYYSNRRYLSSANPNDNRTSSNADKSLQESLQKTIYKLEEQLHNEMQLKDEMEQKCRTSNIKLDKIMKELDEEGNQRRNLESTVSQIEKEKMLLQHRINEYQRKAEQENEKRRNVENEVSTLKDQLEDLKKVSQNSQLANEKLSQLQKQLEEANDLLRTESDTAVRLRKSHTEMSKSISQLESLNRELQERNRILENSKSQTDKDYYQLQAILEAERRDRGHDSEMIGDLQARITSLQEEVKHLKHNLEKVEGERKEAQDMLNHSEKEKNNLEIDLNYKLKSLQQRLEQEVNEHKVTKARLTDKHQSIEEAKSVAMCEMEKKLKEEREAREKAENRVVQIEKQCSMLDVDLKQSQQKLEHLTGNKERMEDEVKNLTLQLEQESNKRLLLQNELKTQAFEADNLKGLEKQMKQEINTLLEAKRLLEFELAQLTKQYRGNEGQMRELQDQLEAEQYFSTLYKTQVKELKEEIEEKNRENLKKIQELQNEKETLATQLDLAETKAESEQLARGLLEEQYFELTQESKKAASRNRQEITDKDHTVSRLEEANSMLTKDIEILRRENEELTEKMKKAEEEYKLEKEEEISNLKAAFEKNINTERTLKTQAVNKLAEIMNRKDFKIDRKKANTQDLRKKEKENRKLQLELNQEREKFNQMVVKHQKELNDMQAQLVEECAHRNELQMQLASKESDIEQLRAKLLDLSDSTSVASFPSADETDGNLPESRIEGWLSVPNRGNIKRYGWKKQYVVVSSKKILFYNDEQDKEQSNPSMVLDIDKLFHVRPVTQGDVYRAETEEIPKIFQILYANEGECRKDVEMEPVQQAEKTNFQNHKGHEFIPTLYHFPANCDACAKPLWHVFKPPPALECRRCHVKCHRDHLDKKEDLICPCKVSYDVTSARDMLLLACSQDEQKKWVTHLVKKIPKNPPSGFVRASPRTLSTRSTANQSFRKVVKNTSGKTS

Turning to `NCc1ccc(Oc2ccnc3[nH]cc(-c4cncc(OCc5ccccc5)c4)c23)cc1` [Example 2, (4-((3-(5-(benzyloxy)pyridin-3-yl)-1H-pyrrolo[2,3-b]pyridin-4-yl)oxy)phenyl)methanamine], the Ki at ROCK 1 and on ROCK 2 was more than 30 nM in each case.
As to `c1cc(-c2c[nH]c3nccc(Oc4ccc5c(c4)CNCC5)c23)cc(NCc2nccs2)n1` [Example 35, 4-(4-((1,2,3,4-tetrahydroisoquinolin-7-yl)oxy)-1H-pyrrolo[2,3-b]pyridin-3-yl)-N-(thiazol-2-ylmethyl)pyridin-2-amine], the inhibition constant Ki at ROCK 1 and at ROCK 2 was less than 3 nM throughout.
Turning to `c1ccc(CNc2cc(-c3c[nH]c4nccc(Oc5ccc6c(c5)CNCC6)c34)on2)cc1` [Example 9, N-benzyl-5-(4-((1,2,3,4-tetrahydroisoquinolin-7-yl)oxy)-1H-pyrrolo[2,3-b]pyridin-3-yl)isoxazol-3-amine], the Ki at ROCK 1 is 3 to 30 nM; on ROCK 2, less than 3 nM.
In the same order, the values of `c1ccc(CNc2cc(-c3c[nH]c4nccc(Oc5ccc6c(c5)CNCC6)c34)ncn2)cc1` [Example 25, N-benzyl-6-(4-((1,2,3,4-tetrahydroisoquinolin-7-yl)oxy)-1H-pyrrolo[2,3-b]pyridin-3-yl)pyrimidin-4-amine] are less than 3 nM and less than 3 nM.
In the case of `O=S(=O)(CCNc1cc(-c2c[nH]c3nccc(Oc4ccc5c(c4)CNCC5)c23)ncn1)c1ccccc1` [Example 29, N-(2-(phenylsulfonyl)ethyl)-6-(4-((1,2,3,4-tetrahydroisoquinolin-7-yl)oxy)-1H-pyrrolo[2,3-b]pyridin-3-yl)pyrimidin-4-amine], the Ki at ROCK 1 and on ROCK 2 was less than 3 nM each time.
Regarding `c1ccc(CNc2cc(-c3c[nH]c4ncnc(Oc5ccc6c(c5)CNCC6)c34)ccn2)cc1` [Example 56, N-benzyl-4-(4-((1,2,3,4-tetrahydroisoquinolin-7-yl)oxy)-7H-pyrrolo[2,3-d]pyrimidin-5-yl)pyridin-2-amine], the inhibition constant Ki at ROCK 1 is 3 to 30 nM; at ROCK 2 it was less than 3 nM.
Consider `O=C(Cn1cc(-c2c[nH]c3nccc(Oc4ccc5c(c4)CNCC5)c23)nn1)NCc1ccccc1` [Example 12, N-benzyl-2-(4-(4-((1,2,3,4-tetrahydroisoquinolin-7-yl)oxy)-1H-pyrrolo[2,3-b]pyridin-3-yl)-1H-1,2,3-triazol-1-yl)acetamide], for which the Ki was 3 to 30 nM on ROCK 1 and less than 3 nM on ROCK 2.
`NCc1ccc(Oc2ccnc3[nH]cc(-c4cnn(CC5CCOCC5)c4)c23)c(F)c1` [Example 24, (3-fluoro-4-((3-(1-((tetrahydro-2H-pyran-4-yl)methyl)-1H-pyrazol-4-yl)-1H-pyrrolo[2,3-b]pyridin-4-yl)oxy)phenyl)methanamine]: the Ki was 3 to 30 nM on ROCK 1 and less than 3 nM at ROCK 2.
In the same order, the values of `Fc1cc2c(cc1Oc1ncnc3[nH]cc(-c4ccnc(NCc5ccccc5)c4)c13)CNCC2` [Example 6, N-benzyl-4-(4-((6-fluoro-1,2,3,4-tetrahydroisoquinolin-7-yl)oxy)-7H-pyrrolo[2,3-d]pyrimidin-5-yl)pyridin-2-amine] are 3 to 30 nM and less than 3 nM.
Turning to `O=C(Nc1cc(-c2c[nH]c3nccc(Oc4ccc5c(c4)CNCC5)c23)ccn1)C1CC1` [Example 39, N-(4-(4-((1,2,3,4-tetrahydroisoquinolin-7-yl)oxy)--1H-pyrrolo[2,3-b]pyridin3-yl)pyridin-2-yl)cyclopropanecarboxamide], the figures for the Ki at ROCK 1 and on ROCK 2 were 3 to 30 nM and less than 3 nM, respectively.

The Ki is the equilibrium dissociation constant of an inhibitor or competing ligand from its target. A high value points to lower affinity.
